{"source": "patent US11179450B2", "about": "“Long chain antigen containing interepitope sequence that promotes antigen presentation to T cells” (MIE UNIVERSITY, priority 2013, dated 2021)", "key": {"[1]": {"tested_on": "MA p265 specific CD8+ T cells", "assay": "Specific CD8+ T cell induction in mice, intracellular cytokine staining (MA p265 epitope)", "format": "in vivo, BALB/c mice", "conditions": "FIG. 6; comparing one to six tyrosines", "method": "(§1) Long chain peptide antigens MEN, all containing three types of mouse CD8+ T cell epitope sequences (MA p265 (Sequence No. 27), NY p81 (Sequence No. 29), and mERK2 9m (Sequence No. 28)), were synthesized. The interepitope sequences between the respective epitopes were one to six consecutive tyrosines (Sequence Nos. 1 and 9-12). Vaccines containing the respective long chain peptide antigens were administered to mice in the same manner as in FIG. 1 and the frequencies of CD8+ T cells specific to the respective epitope sequences were measured by the intracellular cytokine staining method.\nas §1, with “five” for “one”, “ten” for “six”, “13-15).” for “9-12).”\nEach CHP/long chain peptide complex as the vaccine and the CpG oligo DNA as the adjuvant were administered at the same time to a mouse. Administration was performed by subcutaneous injection on the back of the mouse. […]"}, "[2]": {"tested_on": "NY p81 specific CD8+ T cells", "assay": "Specific CD8+ T cell induction in mice, intracellular cytokine staining (NY p81 epitope)", "format": "in vivo, BALB/c mice", "conditions": "FIG. 6; comparing one to six tyrosines", "excerpt": "A long chain peptide antigen ESO1 LP (native type) (Sequence No. 16) and a long chain peptide antigen ESO1 LP (Y6) (Sequence No. 17), both containing a mouse CD8+ T cell epitope sequence (NY p81 or NY p82) and a mouse CD4+ T cell epitope sequence (NY p91) that are derived from human NY-ESO-1 antigen, were synthesized. As the interepitope sequence between epitopes, the native amino acid sequence of NY-ESO-1 was retained in the ESO1 LP (native type) and the sequence of six consecutive tyrosines (Y6) was used in the ESO1 LP (Y6). Vaccines containing the respective long chain peptide antigens were administered to mice in the same manner as in FIG. 1 and the frequencies of CD8+ T cells and CD4+ T cells specific to the respective epitope sequences were measured by the intracellular cytokine staining method.\nas §1\nas §1, with “five” for “one”, “ten” for “six”, “13-15).” for “9-12).”, “method. […]” for “method.”"}}}
{"sequence": "SNPARYEFLYYYYYYQYIHSANVLYYYYYYRGPESRLL (Long chain peptide antigen, containing three types of mouse CD8+ T cell epitope sequences (MA p265, NY p81, and mERK2 9m)) [MEN(Y6)]", "values": [{"measurement": "induction of specific CD8+ T cells, MA p265 (first epitope)", "setting": "[1]", "result": "highest"}, {"measurement": "induction of specific CD8+ T cells, NY p81 (third epitope)", "setting": "[2]", "result": "highest"}]}
